This is an account of results in the kinase profiling compilation of Christmann-Franck et al. (2016).

Experiment in all cases: KINOMEscan competition binding
What all share (conditions): compound 10.0 µM

Assay [1] relates to KIT (human), P10721 [V559D/T670I].
Assay [2] deals with PIK3CA (human), P42336 [E545A].
The test system of assay [3] is ABL1 (human), P00519 [E255K].
Assay [4] deals with PIK3CA (human), P42336 [H1047Y].
In assay [5] the test system is EGFR (human), P00533 [P753S; 747-752 del].
The test system of assay [6] is PIK3CA (human), P42336 [Q546K].
Chain of PIK3CA (human), P42336 [Q546K] (P42336 whole entry Q546K, looked up): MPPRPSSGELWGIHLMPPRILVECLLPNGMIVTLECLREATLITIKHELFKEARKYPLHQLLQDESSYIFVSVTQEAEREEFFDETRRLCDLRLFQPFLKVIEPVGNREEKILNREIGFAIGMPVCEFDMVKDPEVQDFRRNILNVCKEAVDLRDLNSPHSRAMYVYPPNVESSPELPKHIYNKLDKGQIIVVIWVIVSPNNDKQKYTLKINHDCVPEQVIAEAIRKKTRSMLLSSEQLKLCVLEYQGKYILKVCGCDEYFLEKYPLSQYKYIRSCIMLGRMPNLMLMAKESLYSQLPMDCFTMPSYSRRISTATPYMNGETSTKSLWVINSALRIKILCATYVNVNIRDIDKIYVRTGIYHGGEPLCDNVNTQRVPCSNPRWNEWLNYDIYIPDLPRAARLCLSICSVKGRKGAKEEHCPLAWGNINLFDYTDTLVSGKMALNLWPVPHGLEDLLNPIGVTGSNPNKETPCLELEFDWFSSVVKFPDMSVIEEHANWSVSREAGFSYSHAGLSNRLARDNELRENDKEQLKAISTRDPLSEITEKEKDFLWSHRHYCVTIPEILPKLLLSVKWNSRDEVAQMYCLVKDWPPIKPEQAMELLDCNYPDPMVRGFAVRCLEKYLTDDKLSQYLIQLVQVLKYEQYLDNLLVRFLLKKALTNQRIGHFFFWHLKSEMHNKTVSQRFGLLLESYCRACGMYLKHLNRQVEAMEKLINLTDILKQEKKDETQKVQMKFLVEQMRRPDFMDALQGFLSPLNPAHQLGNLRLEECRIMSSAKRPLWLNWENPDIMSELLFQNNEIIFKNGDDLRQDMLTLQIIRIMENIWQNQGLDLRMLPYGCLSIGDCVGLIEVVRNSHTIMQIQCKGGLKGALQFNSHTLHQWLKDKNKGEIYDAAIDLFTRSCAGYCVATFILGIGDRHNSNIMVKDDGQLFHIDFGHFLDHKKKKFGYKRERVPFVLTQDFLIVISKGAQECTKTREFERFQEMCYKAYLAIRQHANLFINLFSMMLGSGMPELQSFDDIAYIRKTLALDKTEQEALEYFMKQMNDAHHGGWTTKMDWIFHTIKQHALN
Assay [7] relates to EGFR (human), P00533 [L861Q].
Assay [8] has as its system FLT3 (human), P36888 [ITD].
The test system of assay [9] is EGFR (human), P00533 [746-750 del].
The test system of assay [10] is PIK3CA (human), P42336 [I800L].
Chain of PIK3CA (human), P42336 [I800L] (P42336 whole entry I800L, looked up): as the sequence (P42336 whole entry Q546K, looked up) above, with K546Q, I800L counted along it
In assay [11] the test system is KIT (human), P10721 [D816V].
Chain of KIT (human), P10721 [D816V] (P10721 whole entry D816V, looked up): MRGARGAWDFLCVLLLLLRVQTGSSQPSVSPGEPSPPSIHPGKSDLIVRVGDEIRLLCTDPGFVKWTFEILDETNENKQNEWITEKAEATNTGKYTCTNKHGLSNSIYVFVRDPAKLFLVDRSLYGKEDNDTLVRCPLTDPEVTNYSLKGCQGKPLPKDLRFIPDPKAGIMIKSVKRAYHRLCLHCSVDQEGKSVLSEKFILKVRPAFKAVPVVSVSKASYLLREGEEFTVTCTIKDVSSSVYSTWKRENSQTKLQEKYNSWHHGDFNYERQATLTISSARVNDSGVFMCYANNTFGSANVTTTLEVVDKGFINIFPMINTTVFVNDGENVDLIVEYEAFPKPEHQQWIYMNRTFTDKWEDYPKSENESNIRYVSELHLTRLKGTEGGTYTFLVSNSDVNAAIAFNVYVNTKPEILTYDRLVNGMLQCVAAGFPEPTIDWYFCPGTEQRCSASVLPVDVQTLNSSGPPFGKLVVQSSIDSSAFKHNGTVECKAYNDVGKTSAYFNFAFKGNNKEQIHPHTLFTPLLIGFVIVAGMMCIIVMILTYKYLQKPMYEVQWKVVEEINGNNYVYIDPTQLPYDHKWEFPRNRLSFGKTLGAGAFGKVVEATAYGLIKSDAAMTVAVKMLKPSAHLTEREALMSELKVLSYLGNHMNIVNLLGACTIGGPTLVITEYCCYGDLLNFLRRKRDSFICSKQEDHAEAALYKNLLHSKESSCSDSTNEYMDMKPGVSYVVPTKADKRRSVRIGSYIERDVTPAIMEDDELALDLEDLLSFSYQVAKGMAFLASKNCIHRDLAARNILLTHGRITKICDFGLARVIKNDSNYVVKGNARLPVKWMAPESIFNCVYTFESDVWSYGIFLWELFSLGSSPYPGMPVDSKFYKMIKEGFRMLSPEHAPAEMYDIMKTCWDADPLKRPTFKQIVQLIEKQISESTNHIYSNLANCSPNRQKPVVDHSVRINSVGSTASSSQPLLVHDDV
In assay [12] the test system is PIK3CA (human), P42336 [E545K].
Chain of PIK3CA (human), P42336 [E545K] (P42336 whole entry E545K, looked up): as the sequence (P42336 whole entry Q546K, looked up) above, with E545K, K546Q counted along it
The test system of assay [13] is KIT (human), P10721 [V559D].
Chain of KIT (human), P10721 [V559D] (P10721 whole entry V559D, looked up): as the sequence (P10721 whole entry D816V, looked up) above, with V559D, V816D counted along it
For assay [14], the system named is EGFR (human), P00533 [G719S].
In assay [15] the test system is EIF2AK4 KD2 (human), Q9P2K8 [S808G].
Chain of EIF2AK4 KD2 (human), Q9P2K8 [S808G] (Q9P2K8 whole entry S808G, looked up): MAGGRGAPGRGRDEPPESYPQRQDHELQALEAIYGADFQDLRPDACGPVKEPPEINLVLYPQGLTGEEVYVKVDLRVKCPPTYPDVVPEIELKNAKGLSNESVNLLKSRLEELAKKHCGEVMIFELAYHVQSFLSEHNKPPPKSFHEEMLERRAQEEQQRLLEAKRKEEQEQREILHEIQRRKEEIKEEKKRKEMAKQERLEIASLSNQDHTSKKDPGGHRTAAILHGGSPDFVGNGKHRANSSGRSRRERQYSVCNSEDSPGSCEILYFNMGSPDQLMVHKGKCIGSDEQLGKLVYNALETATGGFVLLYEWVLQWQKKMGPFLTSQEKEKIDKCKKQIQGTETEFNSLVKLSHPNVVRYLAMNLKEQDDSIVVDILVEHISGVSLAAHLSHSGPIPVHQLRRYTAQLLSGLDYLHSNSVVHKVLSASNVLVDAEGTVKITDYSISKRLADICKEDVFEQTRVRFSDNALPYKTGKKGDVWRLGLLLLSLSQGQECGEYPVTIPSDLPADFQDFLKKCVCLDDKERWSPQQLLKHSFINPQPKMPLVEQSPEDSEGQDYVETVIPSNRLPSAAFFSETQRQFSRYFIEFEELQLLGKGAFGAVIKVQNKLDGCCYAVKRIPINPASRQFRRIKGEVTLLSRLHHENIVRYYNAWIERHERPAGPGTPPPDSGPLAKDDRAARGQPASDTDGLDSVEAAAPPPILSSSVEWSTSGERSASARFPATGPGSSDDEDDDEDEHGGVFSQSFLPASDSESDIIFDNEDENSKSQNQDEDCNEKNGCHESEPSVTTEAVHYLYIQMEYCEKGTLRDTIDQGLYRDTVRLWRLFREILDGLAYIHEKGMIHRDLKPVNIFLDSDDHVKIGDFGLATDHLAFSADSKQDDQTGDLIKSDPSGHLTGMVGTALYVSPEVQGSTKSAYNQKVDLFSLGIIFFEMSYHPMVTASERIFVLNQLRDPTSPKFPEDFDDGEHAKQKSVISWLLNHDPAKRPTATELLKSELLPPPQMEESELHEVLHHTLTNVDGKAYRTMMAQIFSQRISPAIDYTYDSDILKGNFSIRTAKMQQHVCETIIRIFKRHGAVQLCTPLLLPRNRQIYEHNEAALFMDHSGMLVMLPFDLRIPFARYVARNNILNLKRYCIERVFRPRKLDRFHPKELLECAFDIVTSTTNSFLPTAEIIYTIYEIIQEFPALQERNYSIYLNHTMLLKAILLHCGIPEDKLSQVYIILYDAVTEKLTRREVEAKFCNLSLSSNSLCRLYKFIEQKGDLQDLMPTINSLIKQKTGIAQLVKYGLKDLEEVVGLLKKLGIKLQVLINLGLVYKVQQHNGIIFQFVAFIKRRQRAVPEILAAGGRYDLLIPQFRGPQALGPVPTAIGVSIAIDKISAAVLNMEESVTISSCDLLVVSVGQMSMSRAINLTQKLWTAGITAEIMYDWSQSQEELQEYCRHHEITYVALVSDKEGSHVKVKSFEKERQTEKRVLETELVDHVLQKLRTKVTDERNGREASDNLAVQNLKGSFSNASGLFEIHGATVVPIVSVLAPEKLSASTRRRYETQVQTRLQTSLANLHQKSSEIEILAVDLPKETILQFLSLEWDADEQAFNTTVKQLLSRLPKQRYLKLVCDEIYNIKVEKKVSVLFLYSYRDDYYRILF
Assay [16] deals with FLT3 (human), P36888 [N841I].
The subject of assay [17] is PIK3CA (human), P42336 [C420R].
For assay [18], the system named is ABL1 (human), P00519 [M351T].
Assay [19] concerns FLT3 (human), P36888 [K663Q].

Chain of PIK3CA (human), P42336 [H1047Y] (P42336 whole entry H1047Y, looked up): as the sequence (P42336 whole entry Q546K, looked up) above, with K546Q, H1047Y counted along it
Chain of KIT (human), P10721 [V559D/T670I] (P10721 whole entry V559D/T670I, looked up): as the sequence (P10721 whole entry D816V, looked up) above, with V559D, T670I, V816D counted along it
Chain of PIK3CA (human), P42336 [E545A] (P42336 whole entry E545A, looked up): as the sequence (P42336 whole entry Q546K, looked up) above, with E545A, K546Q counted along it
Chain of PIK3CA (human), P42336 [C420R] (P42336 whole entry C420R, looked up): as the sequence (P42336 whole entry Q546K, looked up) above, with C420R, K546Q counted along it

As to `COc1cc2c(Nc3ccc(NC(=O)c4ccccc4)cc3)ncnc2cc1OCCCN1CCOCC1`, the kinase still bound, per cent of control is 1.9% in [1]; 19% in assay [2]; 45% in [3]; 24% in assay [4]; 41% in [5]; 17% in assay [6]. In addition, the kinase still bound, per cent of control in [7] was 6.2%; in assay [8] it was 45%; in assay [9] it was 36%; in assay [10], 100%; in [11] it was 42%; in assay [12], 98%. The kinase still bound, per cent of control in assay [13] turned out to be 0%; in [14], 0.5%; in assay [15] it was 43%; in assay [16], 6%; in assay [17], 68%; in assay [18] it was 32%. For the same compound, the kinase still bound, per cent of control in assay [19] is 4%.

For the compound `O=C(Nc1cccc(Nc2ncc(Br)c(NCCc3cnc[nH]3)n2)c1)N1CCCC1`, the kinase still bound, per cent of control in assay [1] is 2.3%; in [2], 94%; in assay [3] it was 0.15%; in assay [4] it was 62%; in assay [5], 63%; in [6] it was 46%. Besides, the kinase still bound, per cent of control in [7] amounted to 75%; in assay [8], 0%; in assay [9], 62%; in assay [10], 100%; in assay [11], 0.15%; in assay [12] it was 100%. For the same compound, the kinase still bound, per cent of control worked out at 0.05% in [13]; 51% in assay [14]; 0.7% in [15]; 0% in assay [16]; 81% in assay [17]; 0.5% in [18]. This compound also displayed a kinase still bound, per cent of control in assay [19] of 0.1%.

For `COc1cc2ncnc(-n3nc(-c4ccccn4)nc3N)c2cc1OC`, the kinase still bound, per cent of control is 47% in assay [1]; 18% in assay [2]; 0.4% in assay [3]; 24% in [4]; 68% in [5]; 38% in assay [6]. Moreover, the kinase still bound, per cent of control in [7] was 64%; in assay [8] it was 5.6%; in assay [9], 50%; in assay [10], 2.8%; in [11], 0.15%; in assay [12], 40%. In addition, the kinase still bound, per cent of control in [13] is 3.4%; in [14], 57%; in [15] it was 1.6%; in assay [16], 0.4%; in assay [17] it was 41%; in assay [18] it was 1.2%. This compound also showed a kinase still bound, per cent of control in assay [19] of 21%.

For the compound `O=C1NC(=O)/C(=C/c2ccc3nccc(-c4ccncc4)c3c2)S1`, the kinase still bound, per cent of control in assay [1] is 76%; in assay [2], 0.1%; in assay [3], 71%; in assay [4] it was 0.9%; in assay [5], 74%; in [6], 1.3%. The kinase still bound, per cent of control in assay [7] was found to be 87%; in assay [8] it was 47%; in [9], 81%; in assay [10] it was 12%; in assay [11] it was 63%; in assay [12], 0.75%. Further, the kinase still bound, per cent of control in assay [13] was 30%; in [14], 78%; in [15], 7.4%; in assay [16] it was 39%; in assay [17], 0.4%; in assay [18], 56%. The compound further registered a kinase still bound, per cent of control in [19] of 37%.

As for `O=c1[nH]c2ccccc2n1C1CCN(Cc2ccc(-c3nc4cc5[nH]cnc5cc4nc3-c3ccccc3)cc2)CC1`, the kinase still bound, per cent of control was 100% in assay [1]; 95% in assay [2]; 93% in [3]; 100% in assay [4]; 73% in assay [5]; 80% in assay [6]. For the same compound, the kinase still bound, per cent of control in assay [7] turned out to be 66%; in [8] it was 60%; in assay [9], 80%; in assay [10], 51%; in [11], 79%; in assay [12], 69%. In addition, the kinase still bound, per cent of control in [13] was 100%; in [14], 83%; in [15], 100%; in assay [16], 61%; in [17] it was 62%; in assay [18] it was 78%. The same compound yielded a kinase still bound, per cent of control in assay [19] of 56%.

As to `CCN1CCN(C(=O)Cc2ccc(Nc3ncc(F)c(Nc4ccc(C(=O)Nc5ccccc5Cl)cc4)n3)cc2)CC1`, the kinase still bound, per cent of control is 21% in assay [1]; 25% in [2]; 6.2% in [3]; 62% in assay [4]; 38% in assay [5]; 23% in assay [6]. Moreover, the kinase still bound, per cent of control in assay [7] worked out at 52%; in assay [8], 0.1%; in [9], 48%; in assay [10], 88%; in assay [11], 0.75%; in [12] it was 97%. In addition, the kinase still bound, per cent of control in assay [13] came to 0.5%; in [14] it was 78%; in assay [15], 0.4%; in assay [16], 0%; in [17], 57%; in assay [18], 19%. In addition, the kinase still bound, per cent of control in assay [19] came out at 0.4%.

Take `COc1cc(C(=O)N2CCC(N3CCN(C)CC3)CC2)ccc1Nc1ncc2c(n1)N(C)c1ccccc1C(=O)N2C`: the kinase still bound, per cent of control in [1] amounted to 81%; in [2], 98%; in assay [3], 80%; in assay [4], 71%; in [5], 84%; in [6], 91%. The kinase still bound, per cent of control in [7] was 100%; in [8], 100%; in [9], 72%; in [10] it was 38%; in assay [11] it was 72%; in assay [12] it was 100%. Further, the kinase still bound, per cent of control in [13] was found to be 100%; in assay [14], 86%; in assay [15] it was 95%; in assay [16] it was 73%; in assay [17], 89%; in [18], 94%. The compound also showed a kinase still bound, per cent of control in assay [19] of 97%.
